{"source": "patent US4257941A", "about": "“Polycyclic nitrogen-containing compounds” (BASF Aktiengesellschaft, priority 1976, dated 1981)", "key": {"Alopecurus myosuroides": {"test_system": "Alopecurus myosuroides", "test": "Herbicidal action (Example 25)", "format": "in vivo", "conditions": "Alopecurus myosuroides, read-out: percentage damage; for pest or weed control at 1000 g/ha: 1.0 kg/ha; for pest or weed control at 2000 g/ha: 2.0 kg/ha", "method": "(§1) Paraffined paper cups having a volume of 170 cm^3 were filled with a sandy loam, and the seeds of the test plants sown therein, separated by species. (The species are also listed below.)\n(§2) In the first group, treatment was effected immediately after sowing and before germination of the seeds (preemergence treatment=soil treatment). Shallow sown seeds not completely covered with soil came into contact with the active ingredients. In the second group, the plants were treated postemergence (=leaf treatment) at a growth height of from 2 to 8 cm, depending on the rate of growth and shape of the species concerned. The compounds were suspended or emulsified in water and applied with the aid of fine nozzles. The soil and plants were thoroughly sprinkler irrigated for the duration of the experiment. The cups were placed in the greenhouse and kept in the temperature range 12°-25° C. or 18°-35° C., depending on the temperature requirements of the various species. After 2 to 6 weeks the action was assessed visually on a 0 to 100 scale, 0 denoting no damage and 100 denoting plants not germinated or completely destroyed."}, "Echinochloa crus galli": {"test_system": "Echinochloa crus galli", "test": "Herbicidal action (Example 25)", "format": "in vivo", "method": "as §1, §2"}, "Galium aparine": {"test_system": "Galium aparine", "test": "Herbicidal action (Example 25)", "format": "in vivo", "conditions": "post-emergence, postemergence, 4.0 kg/ha, read-out: percentage damage", "method": "as §1, §2"}, "Sinapis alba": {"test_system": "Sinapis alba", "test": "Herbicidal action (Example 25)", "format": "in vivo", "conditions": "read-out: percentage damage; for pest or weed control at 1000 g/ha: 1.0 kg/ha; for pest or weed control at 2000 g/ha: 2.0 kg/ha", "method": "as §1, §2"}, "Festuca rubra": {"test_system": "Festuca rubra", "test": "Growth height of individual grasses (Example 15)", "format": "in vivo", "conditions": "for Growth height: 3 weeks after treatment; for growth height relative: control 100", "method": "(§3) Under the same conditions as in Example 13 the two grasses Festuca rubra and Poa praetensis (both components of the lawn mixture used in Example 13) were grown in a neutral sandy loam. The growth height was measured 3 weeks after treatment with the active ingredients."}, "Poa praetensis": {"test_system": "Poa praetensis", "test": "Growth height of individual grasses (Example 15)", "format": "in vivo", "design": "key to plant color: ^+: plants a darker green", "conditions": "for Growth height: 3 weeks after treatment; for growth height relative: control 100", "method": "as §3"}, "sugar beet": {"test_system": "sugar beet", "test": "Yield and sugar content of sugar beet (Example 20)", "format": "in vivo, sugar beet (KAWpoly variety)", "conditions": "for Sugar content of lower stems rel. / Sugar content rel. / Yield rel.: control 100", "method": "Sugar beets of the KAWpoly variety were grown in a neutral sandy loam in large pots. Fertilization with 1.5 g N as ammonium nitrate and 1 g P2 O5 as secondary potassium phosphate took place at the time of sowing. At a plant height of 16 to 18 cm the leaves were treated twice, once with 0.5 kg/ha and once with 1 kg/ha; in each case, 4 pots formed a variation of the experiment."}}, "note": "Like-named read-outs stand apart in the source and are kept apart here."}
{"smiles": "COc1ccc(NC(=O)N(C)C)cc1Cl", "values": [{"measurement": "pest or weed control at 1000 g/ha", "setting": "Alopecurus myosuroides; post-emergence, postemergence", "result": 70, "unit": "%"}, {"measurement": "pest or weed control at 2000 g/ha", "setting": "Alopecurus myosuroides; post-emergence, postemergence", "result": 70, "unit": "%"}, {"measurement": "pest or weed control at 1000 g/ha", "setting": "Alopecurus myosuroides; pre-emergence, preemergence", "result": 0, "unit": "%"}, {"measurement": "pest or weed control at 2000 g/ha", "setting": "Alopecurus myosuroides; pre-emergence, preemergence", "result": 0, "unit": "%"}, {"measurement": "percentage damage", "setting": "Echinochloa crus galli; postemergence, 1.0 kg/ha", "result": 100, "unit": "percentage damage"}, {"measurement": "percentage damage", "setting": "Echinochloa crus galli; postemergence, 2.0 kg/ha", "result": 100, "unit": "percentage damage"}, {"measurement": "percentage damage", "setting": "Echinochloa crus galli; preemergence, 1.0 kg/ha", "result": 80, "unit": "percentage damage"}, {"measurement": "percentage damage", "setting": "Echinochloa crus galli; preemergence, 2.0 kg/ha", "result": 90, "unit": "percentage damage"}, {"measurement": "pest or weed control at 4000 g/ha", "setting": "Galium aparine", "result": 50, "unit": "%"}, {"measurement": "pest or weed control at 1000 g/ha", "setting": "Sinapis alba; post-emergence, postemergence", "result": 100, "unit": "%"}, {"measurement": "pest or weed control at 2000 g/ha", "setting": "Sinapis alba; post-emergence, postemergence", "result": 100, "unit": "%"}, {"measurement": "pest or weed control at 1000 g/ha", "setting": "Sinapis alba; pre-emergence, preemergence", "result": 90, "unit": "%"}, {"measurement": "pest or weed control at 2000 g/ha", "setting": "Sinapis alba; pre-emergence, preemergence", "result": 90, "unit": "%"}]}
{"smiles": "O=C(Nc1ccc(Cl)c(Cl)c1)C1CC1", "values": [{"measurement": "pest or weed control at 1000 g/ha", "setting": "Alopecurus myosuroides; post-emergence, postemergence", "result": 80, "unit": "%"}, {"measurement": "pest or weed control at 2000 g/ha", "setting": "Alopecurus myosuroides; post-emergence, postemergence", "result": 30, "unit": "%"}, {"measurement": "pest or weed control at 1000 g/ha", "setting": "Alopecurus myosuroides; pre-emergence, preemergence", "result": 0, "unit": "%"}, {"measurement": "pest or weed control at 2000 g/ha", "setting": "Alopecurus myosuroides; pre-emergence, preemergence", "result": 0, "unit": "%"}, {"measurement": "percentage damage", "setting": "Echinochloa crus galli; postemergence, 1.0 kg/ha", "result": 100, "unit": "percentage damage"}, {"measurement": "percentage damage", "setting": "Echinochloa crus galli; postemergence, 2.0 kg/ha", "result": 100, "unit": "percentage damage"}, {"measurement": "percentage damage", "setting": "Echinochloa crus galli; preemergence, 1.0 kg/ha", "result": 80, "unit": "percentage damage"}, {"measurement": "percentage damage", "setting": "Echinochloa crus galli; preemergence, 2.0 kg/ha", "result": 90, "unit": "percentage damage"}, {"measurement": "pest or weed control at 4000 g/ha", "setting": "Galium aparine", "result": 0, "unit": "%"}, {"measurement": "pest or weed control at 1000 g/ha", "setting": "Sinapis alba; post-emergence, postemergence", "result": 100, "unit": "%"}, {"measurement": "pest or weed control at 2000 g/ha", "setting": "Sinapis alba; post-emergence, postemergence", "result": 100, "unit": "%"}, {"measurement": "pest or weed control at 1000 g/ha", "setting": "Sinapis alba; pre-emergence, preemergence", "result": 60, "unit": "%"}, {"measurement": "pest or weed control at 2000 g/ha", "setting": "Sinapis alba; pre-emergence, preemergence", "result": 60, "unit": "%"}]}
{"smiles": "CCc1cccc(CC)c1N(COC)C(=O)CCl", "values": [{"measurement": "pest or weed control at 1000 g/ha", "setting": "Alopecurus myosuroides; post-emergence, postemergence", "result": 40, "unit": "%"}, {"measurement": "pest or weed control at 2000 g/ha", "setting": "Alopecurus myosuroides; post-emergence, postemergence", "result": 50, "unit": "%"}, {"measurement": "pest or weed control at 1000 g/ha", "setting": "Alopecurus myosuroides; pre-emergence, preemergence", "result": 20, "unit": "%"}, {"measurement": "pest or weed control at 2000 g/ha", "setting": "Alopecurus myosuroides; pre-emergence, preemergence", "result": 78, "unit": "%"}, {"measurement": "percentage damage", "setting": "Echinochloa crus galli; postemergence, 1.0 kg/ha", "result": 98, "unit": "percentage damage"}, {"measurement": "percentage damage", "setting": "Echinochloa crus galli; postemergence, 2.0 kg/ha", "result": 98, "unit": "percentage damage"}, {"measurement": "percentage damage", "setting": "Echinochloa crus galli; preemergence, 1.0 kg/ha", "result": 100, "unit": "percentage damage"}, {"measurement": "percentage damage", "setting": "Echinochloa crus galli; preemergence, 2.0 kg/ha", "result": 100, "unit": "percentage damage"}, {"measurement": "pest or weed control at 4000 g/ha", "setting": "Galium aparine", "result": 0, "unit": "%"}, {"measurement": "pest or weed control at 1000 g/ha", "setting": "Sinapis alba; post-emergence, postemergence", "result": 0, "unit": "%"}, {"measurement": "pest or weed control at 2000 g/ha", "setting": "Sinapis alba; post-emergence, postemergence", "result": 0, "unit": "%"}, {"measurement": "pest or weed control at 1000 g/ha", "setting": "Sinapis alba; pre-emergence, preemergence", "result": 0, "unit": "%"}, {"measurement": "pest or weed control at 2000 g/ha", "setting": "Sinapis alba; pre-emergence, preemergence", "result": 0, "unit": "%"}]}
{"smiles": "Clc1ccc(N2N=NC3C4CC(C5N=NC45)C32)cc1", "note": "(stereo not shown) [drawing 385]", "values": [{"measurement": "Growth height", "setting": "Festuca rubra; 0.5 kg/ha", "result": 27.0, "unit": "cm"}, {"measurement": "growth height relative", "setting": "Festuca rubra; 0.5 kg/ha", "result": 98.2}, {"measurement": "Growth height", "setting": "Festuca rubra; 1.0 kg/ha", "result": 25.5, "unit": "cm"}, {"measurement": "growth height relative", "setting": "Festuca rubra; 1.0 kg/ha", "result": 92.7}, {"measurement": "Growth height", "setting": "Festuca rubra; 2.0 kg/ha", "result": 23.5, "unit": "cm"}, {"measurement": "growth height relative", "setting": "Festuca rubra; 2.0 kg/ha", "result": 85.5}, {"measurement": "Growth height", "setting": "Poa praetensis; 0.5 kg/ha", "result": 20.0, "unit": "cm"}, {"measurement": "growth height relative", "setting": "Poa praetensis; 0.5 kg/ha", "result": 88.9}, {"measurement": "plant color", "setting": "Poa praetensis; 1.0 kg/ha", "result": "^+"}, {"measurement": "Growth height", "setting": "Poa praetensis; 1.0 kg/ha", "result": 20.0, "unit": "cm"}, {"measurement": "growth height relative", "setting": "Poa praetensis; 1.0 kg/ha", "result": 88.9}, {"measurement": "plant color", "setting": "Poa praetensis; 2.0 kg/ha", "result": "^+"}, {"measurement": "Growth height", "setting": "Poa praetensis; 2.0 kg/ha", "result": 15.5, "unit": "cm"}, {"measurement": "growth height relative", "setting": "Poa praetensis; 2.0 kg/ha", "result": 68.9}]}
{"smiles": "Brc1ccc(N2N=NC3C4CC(C5N=NC45)C32)cc1", "note": "(stereo not shown) [drawing 386]", "values": [{"measurement": "Growth height", "setting": "Festuca rubra; 0.5 kg/ha", "result": 29.5, "unit": "cm"}, {"measurement": "growth height relative", "setting": "Festuca rubra; 0.5 kg/ha", "result": 107.3}, {"measurement": "Growth height", "setting": "Festuca rubra; 1.0 kg/ha", "result": 27.5, "unit": "cm"}, {"measurement": "growth height relative", "setting": "Festuca rubra; 1.0 kg/ha", "result": 100.0}, {"measurement": "Growth height", "setting": "Festuca rubra; 2.0 kg/ha", "result": 25.5, "unit": "cm"}, {"measurement": "growth height relative", "setting": "Festuca rubra; 2.0 kg/ha", "result": 92.7}, {"measurement": "Growth height", "setting": "Poa praetensis; 0.5 kg/ha", "result": 19.0, "unit": "cm"}, {"measurement": "growth height relative", "setting": "Poa praetensis; 0.5 kg/ha", "result": 84.4}, {"measurement": "plant color", "setting": "Poa praetensis; 1.0 kg/ha", "result": "^+"}, {"measurement": "Growth height", "setting": "Poa praetensis; 1.0 kg/ha", "result": 17.5, "unit": "cm"}, {"measurement": "growth height relative", "setting": "Poa praetensis; 1.0 kg/ha", "result": 77.8}, {"measurement": "plant color", "setting": "Poa praetensis; 2.0 kg/ha", "result": "^+"}, {"measurement": "Growth height", "setting": "Poa praetensis; 2.0 kg/ha", "result": 14.0, "unit": "cm"}, {"measurement": "growth height relative", "setting": "Poa praetensis; 2.0 kg/ha", "result": 62.2}]}
{"smiles": "Brc1ccc(N2N=NC3C4CC(C5N=NC45)C32)cc1", "note": "(stereo not shown) [drawing 400]", "values": [{"measurement": "Sugar content", "setting": "sugar beet; 0.5 kg/ha", "result": 51.0, "unit": "% in dry substance"}, {"measurement": "Sugar content of lower stems", "setting": "sugar beet; 0.5 kg/ha", "result": 22.9, "unit": "% in dry substance"}, {"measurement": "Yield", "setting": "sugar beet; 0.5 kg/ha", "result": 13.04, "unit": "g dry substance/vessel"}, {"measurement": "Sugar content of lower stems rel.", "setting": "sugar beet; 0.5 kg/ha", "result": 100.9}, {"measurement": "Sugar content rel.", "setting": "sugar beet; 0.5 kg/ha", "result": 101.4}, {"measurement": "Yield rel.", "setting": "sugar beet; 0.5 kg/ha", "result": 107.4}, {"measurement": "Sugar content", "setting": "sugar beet; 1.0 kg/ha", "result": 52.2, "unit": "% in dry substance"}, {"measurement": "Sugar content of lower stems", "setting": "sugar beet; 1.0 kg/ha", "result": 25.8, "unit": "% in dry substance"}, {"measurement": "Yield", "setting": "sugar beet; 1.0 kg/ha", "result": 14.39, "unit": "g dry substance/vessel"}, {"measurement": "Sugar content of lower stems rel.", "setting": "sugar beet; 1.0 kg/ha", "result": 113.6}, {"measurement": "Sugar content rel.", "setting": "sugar beet; 1.0 kg/ha", "result": 103.8}, {"measurement": "Yield rel.", "setting": "sugar beet; 1.0 kg/ha", "result": 118.5}]}
